Assay [1] deals with Cloudman S91 melanocytes. Put plainly: Melanocyte pigmentation assay. Type of assay: cell-based. Conditions: conc. 30 μm; positive control. On the procedure: Melanocyte Pigmentation Assay
The following materials were used in the melanocyte pigmentation assay. Cloudman S91 cells (36-1-38C8-16) were obtained from American Type Culture Collection. Dulbecco's Modified Eagle's Medium (“DMEM”; 11885-076), heat-inactivated horse serum (26050-088), heat-inactivated fetal bovine serum (10082-147) and 5000 units/ml penicillin/50 μg/ml streptomycin (15070-063) were obtained from Gibco BRL. Phosphate-buffered saline (PBS; 1000-3), dimethyl sulfoxide (D2650), hydroquinone (H9003), α-melanocyte stimulating hormone (M4135), trichloroacetic acid (T9159) and sodium hydroxide (S8045) were obtained from Sigma. Optical densities were determined using a Dynatech MR5000 spectrophotometer.
The melanocyte pigmentation assay measures a test sample's ability to inhibit pigmentation. […] After a 5-day treatment period with each condition tested in triplicate wells, the cells were harvested by washing with PBS and adding 5% trichloroacetic acid to each well. […] 200 μl of each digestion mixture was then transferred to a well of a 96-well microtiter plate and optical densities were read at 405 nm.
Inhibition of pigmentation is expressed as the percentage decrease in optical density compared to that for untreated cells (no test sample or hydroquinone). […]

In assay [2] the target is T1, Human Leukocyte Elastase (Homo sapiens, UniProt P08246).
T1 sequence (P08246 30-267): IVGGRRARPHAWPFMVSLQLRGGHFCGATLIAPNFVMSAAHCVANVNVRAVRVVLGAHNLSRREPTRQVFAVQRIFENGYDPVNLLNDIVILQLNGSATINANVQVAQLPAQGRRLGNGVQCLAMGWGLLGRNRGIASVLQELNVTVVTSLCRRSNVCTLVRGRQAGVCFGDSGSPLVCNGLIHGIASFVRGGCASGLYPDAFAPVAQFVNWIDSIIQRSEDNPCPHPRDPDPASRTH
Conditions: Ying et al., Biochem. J. 1991; cited from earlier work.

Assay [3] in a line: Lipid Peroxidation assay. In kind it is biochemical. To be noted: for OD532 at indicated time (min) 0: 0 min; for OD532 at indicated time (min) 60: 60 min; for OD532 at indicated time (min) 120: 120 min; for OD532 at indicated time (min) 240: 240 min. On the procedure:
Lipid Peroxidation Assay Thiobarbituric acid (“TBA”; […]), sodium dodecyl sulfate ([…]), butylated hydroxytoluene (B1378), […]) and phosphate-buffered saline (“PBS”; 1000-3) were obtained from Sigma. Lecithin (429415) was obtained from Calbiochem. Ethanol (122898) was obtained from Aaper Alcohol and Chemical Co. Vitamin C (95209) was obtained from Fluka. Ferric chloride (AR5029) was obtained from Mallinckrodt. Optical densities were determined using a SpectraMax 250 spectrophotometer (Molecular Devices). Ultraviolet irradiation was performed using a model VWR […] Chromato-Vue transilluminator (VWR Scientific). The Lipid Peroxidation assay measures inhibition of UV-induced lipid oxidation. The reaction was performed at room temperature by irradiating liposome solutions, containing varying concentrations of test samples, with ultraviolet C light. The extent of lipid peroxidation induced by the UV light was determined by measuring the consequent production of malondialdehyde that results from breakdown of oxidized lipid. […] Vitamin C, a peroxyl radical scavenger, was included in each assay as a control for inhibition of lipid oxidation. Duplicate aliquots of the irradiation mixtures were harvested at several time points and their malondialdehyde contents were measured using the “thiobarbituric acid reaction”. […] The mixtures were heated at 100° C. for 15 minutes, cooled to room temperature and their absorbencies were read at 532 and 650 nm. The readings at 650 nm were subtracted from those at 532 nm to correct for turbidity. These corrected absorbencies were plotted as a function of irradiation time and the rate of lipid peroxidation was determined by linear regression curve fit.

Assay [4] has as its system Dopa Oxidase Activity of a Mushroom Tyrosinase. To be noted: Shin et al., BBRC 1998; cited from earlier work.

Several values for one entry are separate records, joined by “and”; a condition that tells them apart may be missing. Equal values may be shown once.

Turning to `Oc1ccc(O)cc1` [hydroquinone], in assay [1], the % inhibition – broadly, the percentage by which the read-out fell short of the control – is 28% and the “Culture pigmentation (OD405nm) mean” value was determined as 0.747.
For the compound `C[C@H]1[C@H](C)CC[C@]2(C(=O)O)CC[C@]3(C)C(=CC[C@@H]4[C@@]5(C)CC[C@H](O)C(C)(C)[C@@H]5CC[C@]43C)[C@H]12` [Ursolic acid], the “elastase inhibition (in words)” value in assay [2] is listed as “potent elastase inhibitor”.
For `O=C1O[C@H]([C@@H](O)CO)C(O)=C1O` [Vitamin C], in assay [3] (Sample conc. 0.03 %), the “% antioxidant effect” value was 82% and 90%; the “Rate of Lipid Peroxidation” value was 54 MOD532/min and 30 MOD532/min; the “OD532 at indicated time (min) 0” value is 0.012 and 0.014; the “OD532 at indicated time (min) 60” value was 0.013 and 0.0125. In assay [3] (Sample conc. 0.03 %), the “OD532 at indicated time (min) 120” value was 0.016 and 0.014; the “OD532 at indicated time (min) 240” value was 0.025 and 0.0205. In assay [3] (Sample conc. 0.3 %), the “% antioxidant effect” value was 97% and 99%; the “OD532 at indicated time (min) 0” value was found to be 0.011; the “OD532 at indicated time (min) 60” value is 0.012 and 0.011; the “OD532 at indicated time (min) 120” value was 0.013 and 0.011. Also, the “OD532 at indicated time (min) 240” value in assay [3] (Sample conc. 0.3 %) is 0.012.
`Oc1cc(O)cc(/C=C/c2ccc(O)cc2O)c1` [oxyresveratrol]: in assay [4], the “tyrosinase inhibition (in words)” value is on record as “very potent tyrosinase inhibitor”.

The values above are taken from patent US6485756B1, “Stable, homogeneous natural product extracts containing polar and apolar fractions” (Collaborative Technologies, Inc., priority 1999, dated 2002).
